Measured values taken from patent US20050187262A1, “Compositions comprising (S)-amlodipine and an angiotensin receptor blocker and methods of their use” (priority 2004, published 2005).

Legend:
Format in all cases: in vivo, rat
rats [1] = system: rats
Description: (§1) (S)-amlodipine malate and seven ARBs (candasartan, eprosartan, irbesartan, losartan, olmesartan, telmisartan and valsartan) were evaluated. The study was conducted in three parts. Phase I evaluated the time-course of the hypotensive actions of all eight agents ([S]-amlodipine and the seven ARBs). In Phase II, the dose-responsive effects of [S]-amlodipine malate and the seven ARBs were evaluated individually. From this phase of the study, ED30 and ED50 doses of each of the seven ARBs were identified, defined as the dose that produced 30 or 50 percent of the hypotensive effect produced by a rapid i.v. injection (30 μg/kg) of sodium nitroprusside (NTP), a short-acting vasodilator. In Phase III, the dose response to [S]-amlodipine was evaluated in the presence and absence of the ED30 and ED50dose of each of the seven ARBs, with the objective of comparing the extent to which each ARB, at its ED30 or ED50, shifted the dose-response curve of [S]-amlodipine to the left and thus, lowering the apparent ED50 of the calcium channel blocker.
(§2) Animals were anesthetized with thiobutabarbital sodium (Inactin®, 150 mg/kg, delivered i.p.), tracheotomized and placed on a thermostatically controlled heating pad (37-38° C.). The jugular vein and the carotid artery were cannulated with PE-50 tubing for drug administration and recording of cardiovascular parameters, respectively. Blood pressure was recorded from the carotid artery by means of a pressure transducer and heart rate was derived electronically from the blood pressure signal. The signal output derived electronically from the arterial pressure was analyzed with a digital computer. The software IOX-16 continuously recorded the data every 5 sec during the entire procedure for each rat. Raw arterial pressure (in mmHg) and heart rate (beats per min), as well as changes in these two parameters relative to baseline or pre-drug levels (for doses other than initial dose), both in raw units (mm Hg or beats per min [bpm]) and as percentage change from baseline were captured and analyzed. The animals were allowed to equilibrate for 15-20 min before any treatment.
(§3) Doses are expressed in terms of free active substance. Each treatment was administered in a volume of 1 mL/kg by slow (over 20-30 seconds) i.v. bolus for all test articles, in all three phases.
(§4) The data were reported as mean±S.E.M. (standard error of the mean) from 3-5 rats per group. Raw arterial pressure (in mmHg) and heart rate (beats per min), as well as changes in these two parameters relative to baseline or pre-drug levels (for doses other than initial dose), both in raw units (mmHg or beats per min [bpm]) and as percentage change from baseline, were captured and analyzed.

rats [2] = experiment: Phase II: dose-responsive hypotensive effects of the individual agents, ED30/ED50 relative to sodium nitroprusside; conditions: for ED30: dose causing 30% of the maximal drop in blood pressure produced by sodium nitroprusside 30 μg/kg i.v.; for ED50: Rattus norvegicus
Description: as §1, with “From this phase of the study, ED30 and ED50 doses of each of the seven ARBs were identified, defined as the dose that produced 30 or 50 percent of the hypotensive effect produced by a rapid i.v. injection (30 μg/kg) of sodium nitroprusside (NTP), a short-acting vasodilator.” left out
as §2, with “The” for “Animals were anesthetized with thiobutabarbital sodium (Inactin®, 150 mg/kg, delivered i.p.), tracheotomized and placed on a thermostatically controlled heating pad (37-38° C.). The”
as §3, §4

rats [3] = experiment: Phase III: dose response to (S)-amlodipine malate in the absence and presence of an ARB; conditions: for position/shift of the dose response curve of (S)-amlodipine malate plus ARB versus (S)-amlodipine malate alone: ARB given at its ED30, FIGS. 1A and 1B; for ED50: Rattus norvegicus, iv, ARB given at its ED30, read-out: apparent ED50 of (S)-amlodipine malate when combined with the ARB; for Potential Dosage Adjustment (%): extent to which (S)-amlodipine malate could be lowered when co-administered with the ARB
Description: as §1, §2, §3, §4
ED30 and ED50 for each drug were defined as the dose causing a decline in arterial pressure corresponding to 30% and to 50%, respectively, of the maximal drop in blood pressure produced by fast bolus i.v. injection (30 μg/kg) of sodium nitroprusside.
Dose-response curves with (S)-amlodipine malate in the absence and presence of each of the seven ARBs at its ED30 are shown in FIGS. 1A and 1B. The data shown in the figures are from experiments in which ED30 doses of each of the ARBs was combined with (S)-amlodipine malate. These were chosen because ED30 doses were obtainable by direct interpolation of dose response curves from Phase II. For several of the ARBs, doses corresponding to ED50 were obtained from extrapolation of their dose response curves.

[4] = iv, dose causing 50% of the maximal drop in blood pressure produced by sodium nitroprusside 30 μg/kg i.v., read-out: ED50 (estimated)
[5] = iv, hypotensive effect did not reach 50% of the maximum NTP effect, read-out: ED50 (extrapolated from dose response curve)

| Structure (SMILES) | ED30 (rats [2]; i.v.) | position/shift of the dose response curve of (S)-amlodipine malate plus ARB versus (S)-amlodipine malate alone (rats [3]) | ED50 (rats [2]; [5]) | ED50 (rats [3]) | Potential Dosage Adjustment (%) (rats [3]) | other results |
| --- | --- | --- | --- | --- | --- | --- |
| CCOC(=O)C1=C(COCCN)NC(C)=C(C(=O)OC)[C@@H]1c1ccccc1Cl.O=C(O)C[C@H](O)C(=O)O [(S)-amlodipine malate, (S)-Amlodipine-L-Malate] | 0.056 mg/kg | – | – | – | – | time post-injection to maximum/peak hypotensive effect (rats [1]; 100 μg/kg i.v.): 35 to 55 min; maximum effect, decrease in blood pressure (rats [1]; 100 μg/kg i.v., anesthetized rats): 14-17 mmHg; maximum decline in MBP from baseline values (rats [2]; doses 3 to 300 μg/kg i.v.): 49±1%; ED50 (estimated) (rats [2]; i.v., dose causing 50% of the maximal drop in blood pressure produced by sodium nitroprusside 30 μg/kg i.v.): 0.11 mg/kg; HR after injection of each dose (rats [2]; rat, in vivo, iv): gradually and concomitantly increased; ED50 of (S)-amlodipine malate in the absence of an ARB (rats [3]; i.v., no ARB): 0.092 mg/kg |
| CCOc1nc2cccc(C(=O)O)c2n1Cc1ccc(-c2ccccc2-c2nnn[nH]2)cc1 [Candasartan, 2-ethoxy-1-[[2′-(1H-tetrazol-5-yl)[1,1′-biphenyl]-4-yl]methyl]-1H-benzimidazole-7-carboxylic acid] | 0.008 mg/kg | offset | – | – | – | time post-injection to maximum decline of MBP (rats [1]; 30 μg/kg i.v.): 30 min; maximum declines of mean blood pressure (MBP) (rats [1]; 30 μg/kg i.v., at 30 min post-injection): about 20 mmHg; decline in MBP at the next higher dose (rats [2]; 300 mg/kg i.v.): no further decline; ED50 (rats [2]; [4]): 0.052 mg/kg; maximum decrease in MBP from baseline values (rats [2]; reached with 100 μg/kg i.v.): 34±2% |
| CCCCc1ncc(/C=C(\Cc2cccs2)C(=O)O)n1Cc1ccc(C(=O)O)cc1 [Eprosartan, (E)-α-[[2-butyl-1-[(4-carboxyphenyl)methyl]-1H-imidazol-5-yl]methylene]-2-thiophenepropanoic acid] | 0.104 mg/kg | – | ~7 mg/kg | 0.07 mg/kg | 24% | fall in MBP from baseline values at the next higher dose (rats [2]; 3000 mg/kg i.v.): 23±2%; maximum decrease in MBP from baseline values (rats [2]; reached with 1000 μg/kg i.v.): 22±2% |
| CCCCC1=NC2(CCCC2)C(=O)N1Cc1ccc(-c2ccccc2-c2nnn[nH]2)cc1 [Irbesartan, 2-butyl-3-[[2′-(1H-tetrazol-5-yl)[1,1′-bephenyl]-4-yl]methyl]-1,3-diazaspiro[4,4]non-1-en-4-one] | 0.649 mg/kg | – | – | 0.071 mg/kg | 23% | ED50 (rats [2]; [4]): 2.21 mg/kg; maximum decrease in MBP from baseline values (rats [2]; reached with 3,000 μg/kg i.v.): 28±1% |
| CCCCc1nc(Cl)c(CO)n1Cc1ccc(-c2ccccc2-c2nnn[nH]2)cc1 [Losartan, 2-butyl-4-chloro-1-[[2′-(1H-tetrazol-5-yl)[1,1′-biphenyl]-4-yl]methyl]-1H-imidazole-5-methanol] | 0.625 mg/kg | – | 10 mg/kg | 0.078 mg/kg | 15% | maximum decrease in MBP from baseline values (rats [2]; reached with 3,000 μg/kg i.v.): 23±3% |
| CCCc1nc2c(C)cc(-c3nc4ccccc4n3C)cc2n1Cc1ccc(-c2ccccc2C(=O)O)cc1 [Telmisartan, 4′-[(1,4′-dimethyl-2′-propyl[2,6′-bi-1H-benzimidazol]-1′-yl)methyl]-[1,1′-biphenyl]-2-carboxylic acid] | 0.242 mg/kg | offset | ~2 mg/kg | – | – | fall in MBP from baseline values at the next higher dose (rats [2]; 1000 mg/kg i.v.): 23±3%; maximum decrease in MBP from baseline values (rats [2]; reached with 300 μg/kg i.v.): 19±2% |
| CCCCC(=O)N(Cc1ccc(-c2ccccc2-c2nnn[nH]2)cc1)[C@H](C(=O)O)C(C)C [Valsartan, N-(1-oxopentyl)-N-[[2′-(1H-tetrazol-5-yl)[1,1′-biphenyl]-4-yl]methyl]-L-valine] | 0.229 mg/kg | greatest leftward shift | ~4 mg/kg | 0.063 mg/kg | 32% | fall in MBP from baseline values at the next higher dose (rats [2]; 1000 mg/kg i.v.): 19±3%; maximum decrease in MBP from baseline values (rats [2]; reached with 300 μg/kg i.v.): 18±3% |
